Data published in PMC8297771 (PLoS Pathogens, 2021).

How the values were obtained:
[1] = In vivo pharmacokinetics in beagle dogs; conditions: male, plasma, Dog
Procedure: Study design: […]). Group 1 was dosed with STP0404 at 1 mg/kg by single intravenous administration. Groups 2 to 4 were dosed with STP0404 at 20, 40 and 80 mg/kg, respectively, by single oral administration. The vehicle used for IV study was DMSO: PEG400: […] Blood samples were collected at 0.0833, 0.25, 0.5, 1, 2, 4, 8, 12 (only for PO groups) and 24 hrs post-dose for Groups 1 to 4. STP0404 concentrations in plasma samples were determined by LC-MS/MS. Preclinical Dog pharmacokinetics study (Study no. 400751-2015020201-DPK): A total of 6 male Beagle dogs were divided into two groups (3 animals/group). Following single STP0404 2 mg/kg oral and intravenous administration to Beagle Dogs, STP0404 concentration was determined in plasma, and pharmacokinetic parameters were calculated. […] The concentrations of STP0404 in plasma were determined by using a LC/MS/MS method.

[2] = test system: HIV-1 GFP vector produced from treated 293T cells, transduced into Jurkat cells; test: HIV-1 inhibition in producing cells (late stage); type: cell-based; conditions: 60 nM in 293T producing cells; GFP by FACS in Jurkat cells
Procedure: To test for STP0404’s inhibitory effects during the late stage of HIV-1 life cycle such as the maturation step, we employed the “producing cells” setup. In T75 tissue culture flasks, 293T cells were pre-treated with and without STP0404 (0 and 60 nM) for 2 hrs prior to transfection with pD3-HIV (13 μg) and pVSV-g (6 μg), using 0.3 mg/ml polyethylenimine. After 24 hrs incubation at 37°C, the supernatant was removed and replaced with fresh media with and without STP0404 (0 and 60 nM). 48 hrs later, D3-HIV vector from each treatment group was concentrated from the collected supernatant via ultracentrifugation (22,000 rpm for 2 hrs). Following p24 quantification, using 96-well plates, similar amount of respective D3-HIV vector was used to transduce Jurkat cells in triplicates for 48 hrs. The cells were harvested and fixed with 3.7% formaldehyde before being analyzed for GFP expression using FACS (Miltenyi Biotec, VYB). Separately, the “infecting cells” setup was used to investigate the inhibitory effects of STP0404 against the early stages of HIV-1 life cycle such as the integration and transcription steps. […] All data were analyzed using GraphPad Prism (Version 9). Unpaired t tests were performed to determine the significance of the readings in respective experimental set up relative to the untreated controls. […]

HIV-1_89.6 = test: In vitro anti-viral assay in CEMx174 cells (p24); type: cell-based
Procedure: CEMx174 cells were infected with HIV-1 primary isolate 89.6 (From infectious clone p89.6, NIH AIDS Reagent Program) at approximately at 10% of cell population determined by FACS analyses. To determine antiviral activity during virus production, STP0404 was added at concentration in the range of 0.1 nM—10 μM during media exchange at 4 hrs post-infection. DMSO was used as a negative control. Cell-free supernatants were measured for p24 antigen production, 5 days post-infection. The anti-HIV-1 efficacy of the two enantiomers of STP0404 were also determined by using the same protocol. All assays were conducted in triplicates. The IC50 values were computed using GraphPad Prism (Version 9) and presented as means ± S.D. of the triplicates. For SIVmac239, CEMx174 cells were infected with viral supernatant containing SIVmac293 at 50,000 TCID50/mL (kind gift from Dr. G. Silvestri, Emory Yerkes National Primate Research Center) with 100 μL/10^6 cells at varying concentrations of STP0404, BI224436, and Raltegravir, and the same above protocol was followed except for that p27 capsid antigen content was measured daily for 5 days post infection.

cytochrome P450 enzymes = test: Cytochrome P450 inhibition assay in human liver microsomes; type: in vitro ADME; conditions: 8 different cytochrome P450 enzymes
Procedure: The final concentrations of test article in incubation system were 0, 0.15, 0.5, 1.5, 5, 15 and 50 μM. The inhibition of CYP1A2, 2B6, 2C8, 2C9, 2C19, 2D6, and 3A4 in human liver microsomes was measured as the percentage decrease in the activity of marker metabolite formation compared to non-inhibited controls (= 100% activity). The rate of formation of isoform-specific metabolites derived from marker substrates were measured by UPLC-MS/MS. The IC50 values were calculated with the metabolites decrease percentages of test samples to vehicle samples. All incubations were performed in triplicate (Pharmaron, China).

CEMx174 cells = test: Tissue culture cytotoxicity measurement in CEMx174 cells; type: cell-based
Procedure: Fig 1 ALLINI structures and STP0404 activities. A. Quinoline-based BI224436, B. Benzothiazole-based GS-9822, C. Pyridine-based KF116, D. Pyrrolopyridine-based STP0404. The conserved chemical moiety containing tert-butoxy and carboxylic acid groups are marked by “]”. E. In vitro anti-HIV-1 efficacy of STP0404 against HIV-1NL4-3 and 89.6 strains in indicated cell lines. TI: Minimal therapeutic index values were calculated with 50% in vitro inhibitory concentration values (IC50) and 10 μM where no sign of cytotoxicity was observed during tissue culture cytotoxicity measurements (TC50) of all tested compounds in both MT4 and CEMx174 cell lines.

[3] = Human immunodeficiency virus 1, CEMx174

In the case of Cc1nc2c(c(C)c(C)n2Cc2cnn(C)c2)c(-c2ccc(Cl)cc2)c1[C@H](OC(C)(C)C)C(=O)O [STP0404], the AUC ([1]; iv, 2 mg/kg (i.v)) is reported as 9.26 µM·h, the half-life ([1]; iv, 2 mg/kg (i.v)) is reported as 6.11 h and the AUC ([1]; po, 2 mg/kg (p.o)) is reported as 4.68 µM·h. It also gave a Cmax ([1]; po, 2 mg/kg (p.o)) of 3.98 µM, a half-life ([1]; po, 2 mg/kg (p.o)) of 6.9 h and a bioavailability ([1]; po, 2 mg/kg (p.o), read-out: Ft (oral bioavailability)) of 50.6%. The “transduction efficiency, producing cells” value [2] was “significantly reduced transduction efficiency”, the “TI (TC50 / IC50)” value (HIV-1_89.6; HIV-1 89.6 / CEMx174 cells) was > 7,140 and the IC50 (HIV-1_89.6; [3]) was 1.4 nM. The IC90 (HIV-1_89.6; [3]) was 21 nM, the “inhibition of cytochrome P450 enzymes (in words)” value (cytochrome P450 enzymes) was “low (high μM) or no inhibition (NI)” and the TC50 (CEMx174 cells) was > 10,000 nM.
